These results are taken from patent publication US4997757A, “Process for detecting potential carcinogens” (GeneBioMed, Inc., priority 1988, dated 1991).

Series [1] is described as follows: SCC (sister chromatid conversion) intrachromosomal recombination system, deletion alleles of his3. The series is classed as cell-based, Saccharomyces cerevisiae. Conditions: yeast strain rs112; versus untreated control; read-out: induction for SCC / increase in SCC. The source says:
(§1) In the most preferred embodiment it is preferable to grow the cells in a medium which selects against the occurrence of the genome rearrangement to keep the control values as low as possible. In the embodiment described in FIG. 1 it is shown that the LEU2 gene of construct 10 is lost after the genome rearrangement which results in construct 22. Therefore cells containing construct 10, before the rearrangement are able to grow in the absence of leucine in the medium, but cells containing construct 22, after the genome rearrangement are not able to grow in the absence of leucine. After the genome rearrangement cells containing construct 22 are able to grow in the absence of histidine in the medium, but cells containing construct 10 before the genome rearrangement are not able to grow in the absence of histidine. Therefore the selection scheme which was used for Example 3 involves growth of the yeast culture in medium lacking leucine but containing histidine before and during the exposure to the potential carcinogens or other test agents. After the exposure the cells which have undergone genome rearrangement are selected on medium lacking histidine but containing leucine.
(§2) It is preferred that, when the cells are to be grown in the presence of the agent, logarithmic phase cultures are used. In one embodiment, for each of the test strains, a cell suspension of 2×10^6 cells per milliliter-LEU medium be prepared from a logarithmic phase culture pregrown in liquid-LEU medium. The whole mix is aliquoted into portions of 5 milliliter into disposable plastic tubes in the presence of the agent to be tested, the tubes are sealed and shaken continuously for 17 hours.
(§3) After the yeast cells have been exposed to both the agent to be tested and the selection medium under the conditions of the test and have been incubated for some time period of about more than one day preferably at 30 degrees Celsius or any other temperature which allows growth of the yeast cells used, the number of colonies formed by cells which have undergone genome rearrangement are counted and compared with the number of colonies of yeast cells identical in substantially every respect with the exception of not having been exposed to the suspected carcinogenic agent. The rates of genome rearrangement for both the control and experimental samples are then compared.
(§4) Plasmids were constructed as substrates to study intrachromosomal recombination; see an earlier part of the specification and Example 1. The plasmids pRS6 (FIG. 7, construct 108) and pRS11 (FIG. 9, construct 118) both contained an internal fragment of the HIS3 gene as well as one selectable marker (LEU2). pRS11 in addition contained the 2 μm origin of replication to select for the presence of the plasmid after plasmid excision. pRS11FRT-had the FLP recombination site disrupted (see Example 1). Yeast strains RSY6 containing construct 10, RSY11 containing construct 118 and RSY11FRT- (see Example 1) were used. They contained the respective pRS plasmids integrated into the HIS3 gene of strain S35/2-10C giving rise to disruptions of the HIS3 gene construct 10 or analogs to it (FIG. 10). The two resulting his3 deletion alleles (FIG. 10) shared about 400 basepairs of homology and thus could interact with each other by homologous recombination. Reversion of his- to HIS+ occurred at a frequency of about 4×10^-4 in all three strains. All of 100 tested HIS+ revertants of strain RSY6 were leu-. Because of this observation strains used for recombination studies were always pregrown on -LEU medium to prevent growth of HIS+ revertants. Therefore the frequency of HIS+ revertants is a measure of the recombination rate.
(§5) The strain used in this example was RS112 which was obtained by crossing strain RSY6 with strain 428. RSY6 contains the SCC system and was deposited at November 30 under "ATCC designation number 20871" with the American Type Culture Collection of 12301 Parklawn Drive, Rockville, Md. 20852. […]

Series [2] relates to strain RS112 (his3 deletion alleles). The description is as above. Type of series: cell-based, Saccharomyces cerevisiae. The settings on record: for SCC/10^4 cells: strain RS112.
Text: as §1, §2, §3, §4, §5

Series [3] relates to strain RS112 (heteroalleles ade2-40 and ade2-101). Nature of the series: ICC (interchromosomal gene conversion) between heteroalleles ade2-40 and ade2-101. The series is classed as cell-based, Saccharomyces cerevisiae. Conditions: for ICC/10^5 cells: strain RS112. The protocol:
as §2
(§6) The strain used in this example was RS112 which was obtained by crossing strain RSY6 with strain 428. RSY6 contains the SCC system and was deposited at November 30 under "ATCC designation number 20871" with the American Type Culture Collection of 12301 Parklawn Drive, Rockville, Md. 20852. Strain 428 was obtained from M. Snyder, Department of Biology, at Yale University, New Haven, Conn. and was used because it contains the mutation his3Δ-200, the construction of which has been described in an article by Struhl entitled "Naturally occurring poly(dA-dT) sequences are upstream promoter elements of constitutive transcription in yeast, published in Proc. Natl. Acad. Sci. USA 82 on pages 8419-8423. Strains containing the his3Δ-200 mutation are readily available to those skilled in the art.
Strain RS112 has the following genotype: [drawing 2]
Values for the intrachromosomal recombination system between deletion alleles of his3 are designated as SCC. Also strain RS112 contained heteroallelic mutations in ade2 so that the frequency of interchromosomal gene conversion (ICC) between heteroalleles in a diploid was determined. ICC was measured as recombination between the heteroalleles ade2-40 and ade2-101 by selecting for ADE+. Values obtained are given to compare the performance of the two systems.
The frequencies for ICC are given in events per 10^5 survivals, and the frequencies for SCC are given in events per 10^4 survivals. It has to be noted that for sister chromatid recombination in mammalian cells the increase even with potent carcinogens is usually less than ten fold and also slight increases have been taken as positive results. For instance an increase in frequency of two fold has been taken to be significant; see a publication by Rudiger et al. entitled "Metabolites of diethylstilbestrol induce sister chromatid exchange in human cultured fibroblasts." published in Nature 281:392-394).

Series [4] in a line: survival of yeast exposed to agent. The series is classed as cell-based, Saccharomyces cerevisiae.
Text: It is preferred to conduct a preliminary experiment to determine those concentrations of the agent to be tested which should be evaluated in the main experiment. Yeast cells are exposed to a wide range of concentrations of the agent to be tested to determine its cytotoxicity.
as §2, §6

The subject of the next series is Salmonella typhimurium. The settings on record: cited from earlier work.
The subject of the next series is rats. The settings on record: cited from earlier work.
The conditions of series [5]: cited from earlier work; for carcinogenicity: in vivo.
Series [6] relates to strain RS112. Briefly: plating efficiency after MBC treatment. The series is classed as cell-based, Saccharomyces cerevisiae. Conditions: 100 μg/ml, 5 to 7 hours at 30° C. The protocol:
(§7) The applicant has reproduced the method published in the aforementioned paper by Fabre et al. Mol. Gen. Genet. 195:139143 (1984) to obtain mostly G1 (stationary) and G2 arrested cells by using Methyl-Benzimidazole-Carbamate (MBC) to arrest the cells in G2 : Strain used for the experiment was RS112, the genotype of which is given below: [drawing 1] Media were the same as described at another part of the specification. Stationary cells were obtained by incubation of cells in liquid YPD at 30° C. for 48 hours. Stationary cells were more than 85% in G1. To obtain cells arrested in G2 the cells were incubated in YPD containing the fungicide methyl benzimidazol-2-yl carbamate (MBC) (stock solution 10 mg/ml) at a concentration of 100 μg/ml at a cell density of 10^7 cells/ml for 5 to 7 hours at 30° C. […] Log phase cells were obtained by incubation of the cells in YEPD for the same time period without MBC. Log phase cultures contained cells in all stages. The cells were irradiated with UV light at a dose of 0-40 J/m2 and cells were held at G1, log or G2 for another two hours to allow repair of the damage in the respective stage. The cells were than collected by centrifugation and washed twice, plated for survivals onto SC medium, for determination of interchromosomal conversion events onto SC-Ade and for determination of SCC onto SC-His.

The subject of series [7] is strain RS112. Briefly: G2 arrest of yeast cells by MBC. The series is classed as cell-based, Saccharomyces cerevisiae. Conditions: 100 μg/ml, 5 to 7 hours at 30° C. The method, then:
as §7

In series [8] the test system is mammalian cells. The settings on record: cited from earlier work.
Series [9] has as its system mammalian cells. Conditions: cited from earlier work. This is another data set of the same source.
Another series concerns rat liver. The settings on record: in vivo; cited from earlier work.
The next series has as its system mice. The settings on record: cited from earlier work.

Turning to `C=O` [Formaldehyde], the fold induction in series [1] was roughly 20. Moreover, the “SCC result in words” value in series [2] is “test positive”. The “SCC/10^4 cells” value in series [2] (0.015 mg/ml) is 3.8 /10^4 cells; in [2] (0.03 mg/ml) it was 7.3 /10^4 cells; in series [2] (0.05 mg/ml) it was 29.5 /10^4 cells; in series [2] (0.07 mg/ml) it was 40.0 /10^4 cells. Also, the “ICC result in words” value in series [3] is “induces ICC”. For the same molecule, the “ICC/10^5 cells” value in [3] (0.015 mg/ml) is given as 2.5 /10^5 cells; in [3] (0.03 mg/ml), 2.1 /10^5 cells; in series [3] (0.05 mg/ml), 5.4 /10^5 cells; in series [3] (0.07 mg/ml), 7.1 /10^5 cells. Besides, the viability – broadly, a read-out of living cells in per cent, often relative to untreated cells – at 17 h in [4] (yeast strain rs112, 0.015 mg/ml) is 97%; in series [4] (yeast strain rs112, 0.03 mg/ml), 53%; in [4] (yeast strain rs112, 0.05 mg/ml) it was 4.2%; in series [4] (yeast strain rs112, 0.07 mg/ml), 2.2%. In the series with Salmonella typhimurium, the “Ames Assay result” value was “negative”. Further, the carcinogenicity result in the series with rats is recorded as “causes nasal cancer in rats”; in series [5], “known carcinogen”. Further, the tumor promotion entry in [5] (proposed) is recorded as “proposed to act as tumor promoter”.

For `COC(=O)Nc1nc2ccccc2[nH]1` [MBC, methyl benzimidazol-2-yl carbamate], in the series with strain RS112 [6], the plating efficiency result is listed as “never decreased”. Besides, the “cells showing characteristic G2 arrest” value in the series with strain RS112 [7] is reported as “more than 90%”.

With `C=CCc1ccc2c(c1)OCO2` [Safrole], the “SCC/10^4 cells” value in [2] (0.05 %) is on record as 0.94 /10^4 cells; in series [2] (0.1 %), 1.22 /10^4 cells; in [2] (0.2 %) it was 2.4 /10^4 cells; in series [2] (0.4 %), 14.1 /10^4 cells. The “ICC/10^5 cells” value in series [3] (0.05 %) is given as 1.07 /10^5 cells; in series [3] (0.1 %), 0.59 /10^5 cells; in series [3] (0.2 %), 0.82 /10^5 cells; in [3] (0.4 %), 1.36 /10^5 cells. Also, the viability at 17 h in [4] (yeast strain rs112, 0.05 %) turned out to be 112%; in series [4] (yeast strain rs112, 0.1 %), 95%; in [4] (yeast strain rs112, 0.2 %), 76%; in series [4] (yeast strain rs112, 0.4 %), 4.6%. Besides, the “Ames Assay result” value in the series with Salmonella typhimurium is recorded as “negative”. Further, the SCE assay result with mammalian cells [8] was “negative”. Further, the “chromosomal aberration assay result” value in the series on mammalian cells [9] was “negative”. The “rat liver foci assay result” value in the series on rat liver is given as “negative”. The carcinogenicity result with rats is “produces liver cancer in mice and rats”; in the series on mice, “produces liver cancer in mice and rats”; in series [5] it was “known carcinogens”.
